Experimental data as given in ChEMBL document CHEMBL4715716, “Discovery of novel non-steroidal reverse indole mineralocorticoid receptor antagonists” (Bioorg Med Chem Lett, 2016).

How the values were obtained:
Format in all cases: ADME, organism-based
[1] = Clearance in rat at 1 mg/kg, iv or 2 mg/kg, po by LC/MS/MS analysis; settings: in vivo
[2] = Volume of distribution at steady state in rat at 1 mg/kg, iv or 2 mg/kg, po by LC/MS/MS analysis; settings: in vivo, read-out: Vdss
[3] = Half life in rat at 1 mg.kg, iv or 2 mg/kg, po by LC/MS/MS analysis; settings: in vivo
[4] = Dose normalized AUC in rat at 2 mg/kg, po by LC/MS/MS analysis; settings: in vivo
[5] = Oral bioavailability in rat at 2 mg/kg by LC/MS/MS analysis; settings: in vivo

clearance [1]	Vd [2]	half-life [3]	AUC/dose [4]	bioavailability [5]	SMILES
41 mL/min/kg	4.1 L/kg	1.5 h	0.67 µM·kg·h/mg	65%	CC[C@](CO)(c1ccc(Cl)cc1)n1ccc2c(NS(C)(=O)=O)cccc21
67 mL/min/kg	2.8 L/kg	0.6 h	0.13 µM·kg·h/mg	21%	CC[C@](C(=O)NC)(c1ccc(Cl)cc1)n1ccc2c(NS(C)(=O)=O)cccc21
